Laboratory results: article PMC8596838, “Xylose‐Configured Cyclophellitols as Selective Inhibitors for Glucocerebrosidase” (Chembiochem, 2021)

Columns and labels:
GBA2 = molecular target: T1, GBA2 (Homo sapiens, UniProt Q9HCG7); experiment: Competitive ABPP (cABPP) with ABP 10 in HEK293T cell lysates, GBA2; assay type: biochemical; conditions: cell lysate, 30 min incubation
T1 construct: expressed in transfected cells; host or cells: HEK293T (GBA/GBA2 KO background for the fluorogenic assay; endogenous-GBA background with GBA2 and GBA3 overexpressed for ABPP and intact-cell assays)
T1 sequence (Q9HCG7 1-927): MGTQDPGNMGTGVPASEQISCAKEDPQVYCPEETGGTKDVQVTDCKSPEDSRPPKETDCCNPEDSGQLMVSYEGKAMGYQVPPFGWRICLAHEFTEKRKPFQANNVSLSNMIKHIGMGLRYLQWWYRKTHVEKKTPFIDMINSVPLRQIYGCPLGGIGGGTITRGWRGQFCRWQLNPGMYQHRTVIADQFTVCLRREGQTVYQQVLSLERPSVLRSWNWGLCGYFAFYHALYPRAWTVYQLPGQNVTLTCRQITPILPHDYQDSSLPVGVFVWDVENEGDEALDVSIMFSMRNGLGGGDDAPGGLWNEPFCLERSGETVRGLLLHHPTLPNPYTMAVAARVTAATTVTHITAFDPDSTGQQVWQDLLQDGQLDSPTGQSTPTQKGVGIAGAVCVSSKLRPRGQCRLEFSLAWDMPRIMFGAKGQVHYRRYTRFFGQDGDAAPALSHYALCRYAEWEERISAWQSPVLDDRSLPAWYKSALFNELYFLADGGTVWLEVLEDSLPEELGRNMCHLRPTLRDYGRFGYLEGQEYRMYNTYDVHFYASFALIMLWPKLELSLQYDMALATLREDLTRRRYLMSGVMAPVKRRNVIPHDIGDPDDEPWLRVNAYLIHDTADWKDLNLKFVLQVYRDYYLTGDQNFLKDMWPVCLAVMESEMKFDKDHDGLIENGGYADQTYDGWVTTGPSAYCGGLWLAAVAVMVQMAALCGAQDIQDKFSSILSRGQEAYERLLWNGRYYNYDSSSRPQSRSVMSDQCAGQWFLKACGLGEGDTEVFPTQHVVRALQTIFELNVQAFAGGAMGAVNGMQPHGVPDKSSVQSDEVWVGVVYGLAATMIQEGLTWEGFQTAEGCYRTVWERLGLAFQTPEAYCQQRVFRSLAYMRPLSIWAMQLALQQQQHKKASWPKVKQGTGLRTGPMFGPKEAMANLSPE
Description: (§1) In the first instance, the inhibitory potency of 1 and 2 for GBA, GBA2, and GBA3 was assessed by competitive activity‐based protein profiling (cABPP). For this, we first generated HEK293T cells that contain endogenous GBA and overexpress human GBA2 and GBA3.
(§2) Figure 3 Selectivity of compounds visualized by competitive ABPP labeling of β‐D‐glucosidase. Lysates of HEK293T cells expressing human GBA, GBA2 and GBA3 were incubated with compounds 1–5 at indicated concentrations for 30 min, following by cABPP with ABP 10.
(§3) ABP labeling procedure: Glycosidases were labeled with excess fluorescent ABPs at optimum conditions. ABP labeling was performed at 37 °C for 30 min for all materials (if not otherwise stated), in a total sample volume of 20–40 μL and 0.5–1 % DMSO concentration. GBA was labeled with 200 nM ABP 9 (pH 5.2, 0.1 % (v/v) Triton‐100, 0.2 % (w/v) sodium taurocholate), or labeled together with GBA2 using 200 nM β‐D‐glucose‐configured aziridine ABP 10 at pH 5.8, or labeling together with GBA2 and GBA3 using 200 nM β‐D‐glucose‐configured aziridine ABP 10 at pH 6.0. After ABP incubation, proteins were denatured by boiling the samples with 5× Laemmli buffer (50 % (v/v) 1 M Tris‐HCl, pH 6.8, 50 % (v/v) 100 % glycerol, 10 % (w/v) DTT, 10 % (w/v) SDS, 0.01 % (w/v) bromophenol blue) for 5 min at 98 °C, and separated by electrophoresis on 10 % (w/v) SDS‐PAGE gels running continuously at 90 V. Wet slab‐gels were scanned on fluorescence using the Typhoon FLA 9500 (GE Healthcare) at λEX 473 nm and λEM≥510 nm for green fluorescent ABP 8; and at λEX 635 nm and λEM≥665 nm for ABP 6, 9 and 10. ABP‐emitted fluorescence was quantified using ImageQuant software (GE Healthcare, Chicago, IL, USA) and curve‐fitted using Prism 8.0 (GraphPad Software). After fluorescence scanning, SDS‐PAGE gels were stained for total protein with Coomassie G250 and scanned on a ChemiDoc MP imager (Bio‐Rad, Hercules, CA, USA).[25]

GBA = molecular target: T2, GBA (Homo sapiens, UniProt P04062); experiment: Competitive ABPP (cABPP) with ABP 10 in HEK293T cell lysates, GBA; assay type: biochemical; conditions: cell lysate, 30 min incubation
T2 construct: HEK293T cells that contain endogenous GBA; endogenous in cells; host or cells: HEK293T (ATCC CRL-3216) overexpressing GBA2 and GBA3
T2 sequence (P04062 40-536): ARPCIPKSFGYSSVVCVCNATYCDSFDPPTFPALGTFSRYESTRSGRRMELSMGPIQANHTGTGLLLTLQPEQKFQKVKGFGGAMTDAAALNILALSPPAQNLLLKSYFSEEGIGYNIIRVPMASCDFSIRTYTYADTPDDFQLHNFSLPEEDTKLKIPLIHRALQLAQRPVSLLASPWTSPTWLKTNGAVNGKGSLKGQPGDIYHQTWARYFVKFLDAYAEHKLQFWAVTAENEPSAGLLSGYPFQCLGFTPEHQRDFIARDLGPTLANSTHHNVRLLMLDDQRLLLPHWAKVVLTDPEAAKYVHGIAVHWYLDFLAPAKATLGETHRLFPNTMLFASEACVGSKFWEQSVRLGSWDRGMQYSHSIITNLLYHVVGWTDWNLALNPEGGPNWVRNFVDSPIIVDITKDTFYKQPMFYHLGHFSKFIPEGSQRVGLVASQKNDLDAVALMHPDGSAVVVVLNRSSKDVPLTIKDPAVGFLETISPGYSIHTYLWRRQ
Description: as §1, §2, §3

Row | SMILES | concentration competing ABP 10 labeling of GBA2 (GBA2) [µM] | concentration competing ABP 10 labeling of GBA (GBA) [µM] | competition of ABP 10 labeling of GBA (GBA) | competition of ABP 10 labeling of GBA2 (GBA2)
1 | OC[C@@H]1[C@@H](O)[C@H](O)[C@@H](O)[C@@H]2N[C@H]12 [compound 4, cyclophellitol aziridine, reference compound] | 0.1 to 1 | 0.1 to 1 |  | 
2 | [N-]=[N+]=NCCCCCCCCN1[C@H]2[C@H](O)[C@@H](O)[C@H](O)C[C@H]21 (stereo partly drawn) [compound 5] |  |  | greatly enhances inhibitory potency | 
3 | O[C@@H]1[C@@H](O)[C@H](O)C[C@H]2N[C@@H]12 [compound 2, β‐D‐xylo‐Cyclophellitol aziridine] | 100 | 1 to 10 |  | 
4 | O[C@@H]1[C@@H](O)[C@H](O)C[C@H]2O[C@@H]12 [compound 1, xylo‐cyclophellitol] |  | 10 to 100 |  | but not that of GBA2 or GBA3
5 | OC[C@@H]1[C@@H](O)[C@H](O)[C@@H](O)[C@@H]2O[C@H]12 [compound 3, cyclophellitol] | 0.1 to 1 | 0.1 to 1 |  | 
